Assay [1] concerns the target α1G T-type calcium channel (Homo sapiens, UniProt O43497). Briefly: Assay for T-type calcium channel inhibition activity (FDSS6000 calcium imaging, KCl activation). In kind it is cell-based. The following applies: 75 s pre-treatment then KCl 75 mM, HEK293 cells expressing α1G T-type calcium channel and Kir2.1. The method, then:
At 12-24 hours before the assay for T-type calcium channel activity, cells of HEK293 cell line (α1G cell line: KCTC 10519BP, GenBank, Korea Research Institute of Bioscience and Biotechnology) which stably express α1G T-type calcium channel and Kir2.1, were sub-cultured in a poly-L-lysine (0.05 mg/ml) treated 96-well plate with the density of 4×10^4 per a well using a 96-well cell dispenser (Titertek). On the day of assay, the 96-well plate to which the cells were attached were washed three times with a HEPES buffer solution (unit mM: 150 NaCl, 5 KCl, 1 MgCl2, 2 CaCl2, 10 HEPES, 10 glucose, pH 7.4) using a 96-well plate automatic washing device (Bio Tek), and then reacted with a HEPES buffer solution containing 5 μM fluo-3/AM and 0.001% (w/v) Pluronic F-127 at room temperature for 1 hour, to label with fluorescent dye, and then further washed twice with the HEPES buffer solution. Thereafter, at 10 minutes before the measurement using a FDSS6000 device, a washing with a HEPES buffer solution containing 10 mM CaCl2 was conducted once more, and the final volume was adjusted to 81 μl. Besides the above 96-well plate containing the cells, additional two 96-well drug plates were provided, in which the 96-well plates contained KCl (final concentration: 75 mM) for activating T-type calcium channel and a blocker drug, respectively.
Since most of cell-based HTS (High throughput screening) devices are equipped with a liquid application system for drug injection, but have no liquid sucking system, the blocker drug to be tested and KCl were respectively provided at the five-times higher concentration in 10 mM CaCl2 HEPES buffer solution at the amount of 27 μl, diluted five-times at the final cell plate volume of 135 μl, and then used in this test. In this Experimental Example, therefore, FDSS6000 (Hamamatsu Photonics) was used as an alternative to HTS device.
Specific FDSS6000 measurement conditions are as follows: After recording the reference value of 20 seconds, the change of intracellular calcium concentration which induced by pre-treatment of the drug (the prepared […]) for 75 seconds followed by administration of KCl was measured, in which the percentage (%) inhibition effect of the test drug was determined, through estimating the area of ratio value of 340/380 in the control without treatment of the test drug as 100%. As a reference drug, 10 μM of mibefradil was always used.
For accurate calcium-imagination, the light sources of 4 xenon lamps in FDSS6000 were radiated to make the cells exposed selectively to the excitation wavelength (340 nm and 380 nm) by computer-controlled filter wheel. Data was obtained at interval of each 1.23 second. The emitter fluorescence light inflow through a 515 nm long-pass filter was obtained as an average 340/380 ratio value for each well in the 96-wells by a cooled CCD camera and digital fluorescence analyzer in the device. All image data and analysis were obtained by using a FDSS6000-exclusive program provided by Hamamatsu Photonics, as described above.

In assay [2] the target is T1, TREK-1 channel (Rattus norvegicus, UniProt Q920B6).
T1 construct: expressed in transfected cells; host or cells: COS7 (Korean Cell Line Bank), transient transfection with Effectene
T1 sequence (Q920B6 1-426): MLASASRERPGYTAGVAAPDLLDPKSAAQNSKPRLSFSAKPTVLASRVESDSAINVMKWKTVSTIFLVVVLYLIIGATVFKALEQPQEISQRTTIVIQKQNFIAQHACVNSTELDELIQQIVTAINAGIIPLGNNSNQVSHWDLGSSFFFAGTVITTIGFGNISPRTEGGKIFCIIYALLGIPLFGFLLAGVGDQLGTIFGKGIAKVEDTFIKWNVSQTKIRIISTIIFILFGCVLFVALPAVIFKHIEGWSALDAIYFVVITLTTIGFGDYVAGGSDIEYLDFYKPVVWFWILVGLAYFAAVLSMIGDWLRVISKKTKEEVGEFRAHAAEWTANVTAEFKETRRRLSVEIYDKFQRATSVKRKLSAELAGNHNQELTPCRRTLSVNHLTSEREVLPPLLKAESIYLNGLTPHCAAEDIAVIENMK
Briefly: Assay for TREK channel inhibition activity (whole cell patch clamp recording, COS7 cell transfected with GFP-rTREK-1). The conditions noted are these: COS7 cells, GFP-rTREK-1, whole-cell patch clamp; for inhibition at 101 µM: COS-7, Table 3 (value ± spread), 101 μM [sic], read-out: block % at 101 μM; for inhibition at 10 µM: COS-7, Table 2, read-out: block % at 10 μM. The assay is classed as cell-based. The method, then: The inhibition activity of the compound of the present invention against TREK-1 channel was measured by measuring the physiological activity by whole cell patch clamp recording.
COS7 cell (obtained from Korean Cell Line Bank (KCLB)) was transfected with GFP-rTREK-1 gene (accession number: AY727922) using an Effectene transfection reagent (Qiagen), and cultured for 24 hours in an incubator at 37° C. As a culture medium, Dulbecco's modified Eagle's medium (DMEM, GIBCO products from Invitrogen) containing 10% by weight of fetal bovine serum (FBS) and 1% by weight of penicillin/streptomycin (5000 unit/ml) was used. The cells thus prepared were adhered on a cover glass, which was placed on a chamber, and then a recording solution (150 mM NaCl, 10 mM HEPES, 10 mM KCl, 2 mM CaCl2, 5.5 mM D-Glucose, all reagents were purchased from Sigma) was applied. A glass microelectrode was filled with an intracellular solution prepared with the composition of 150 mM KCl, 5 mM EGTA, 10 mM HEPES, 0.5 mM CaCl2, 1 mM MgCl2, 4 mM Mg-ATP, and 0.3 mM Na-GTP (all reagents were purchased from Sigma), followed by whole-cell patch clamp recording. The voltage was fixed at −70 mV using a Digidata 1322A data acquisition system (Molecular Devices) and an Axopatch 200A amplifier (Axon Instruments), and the current generated by applying a voltage ramp from −100 mV to +100 mV for 1 second was measured using a Clampex9.2 program. A difference between the current values measured at +100 mV and −100 mV was defined as a current in the above experiment. The currents before and after blocker treatment were measured so as to determine the inhibition activity.
Block %=100−(current after blocker treatment/current before blocker treatment)*100

α1G T-type calcium channel, sequence (O43497 whole entry): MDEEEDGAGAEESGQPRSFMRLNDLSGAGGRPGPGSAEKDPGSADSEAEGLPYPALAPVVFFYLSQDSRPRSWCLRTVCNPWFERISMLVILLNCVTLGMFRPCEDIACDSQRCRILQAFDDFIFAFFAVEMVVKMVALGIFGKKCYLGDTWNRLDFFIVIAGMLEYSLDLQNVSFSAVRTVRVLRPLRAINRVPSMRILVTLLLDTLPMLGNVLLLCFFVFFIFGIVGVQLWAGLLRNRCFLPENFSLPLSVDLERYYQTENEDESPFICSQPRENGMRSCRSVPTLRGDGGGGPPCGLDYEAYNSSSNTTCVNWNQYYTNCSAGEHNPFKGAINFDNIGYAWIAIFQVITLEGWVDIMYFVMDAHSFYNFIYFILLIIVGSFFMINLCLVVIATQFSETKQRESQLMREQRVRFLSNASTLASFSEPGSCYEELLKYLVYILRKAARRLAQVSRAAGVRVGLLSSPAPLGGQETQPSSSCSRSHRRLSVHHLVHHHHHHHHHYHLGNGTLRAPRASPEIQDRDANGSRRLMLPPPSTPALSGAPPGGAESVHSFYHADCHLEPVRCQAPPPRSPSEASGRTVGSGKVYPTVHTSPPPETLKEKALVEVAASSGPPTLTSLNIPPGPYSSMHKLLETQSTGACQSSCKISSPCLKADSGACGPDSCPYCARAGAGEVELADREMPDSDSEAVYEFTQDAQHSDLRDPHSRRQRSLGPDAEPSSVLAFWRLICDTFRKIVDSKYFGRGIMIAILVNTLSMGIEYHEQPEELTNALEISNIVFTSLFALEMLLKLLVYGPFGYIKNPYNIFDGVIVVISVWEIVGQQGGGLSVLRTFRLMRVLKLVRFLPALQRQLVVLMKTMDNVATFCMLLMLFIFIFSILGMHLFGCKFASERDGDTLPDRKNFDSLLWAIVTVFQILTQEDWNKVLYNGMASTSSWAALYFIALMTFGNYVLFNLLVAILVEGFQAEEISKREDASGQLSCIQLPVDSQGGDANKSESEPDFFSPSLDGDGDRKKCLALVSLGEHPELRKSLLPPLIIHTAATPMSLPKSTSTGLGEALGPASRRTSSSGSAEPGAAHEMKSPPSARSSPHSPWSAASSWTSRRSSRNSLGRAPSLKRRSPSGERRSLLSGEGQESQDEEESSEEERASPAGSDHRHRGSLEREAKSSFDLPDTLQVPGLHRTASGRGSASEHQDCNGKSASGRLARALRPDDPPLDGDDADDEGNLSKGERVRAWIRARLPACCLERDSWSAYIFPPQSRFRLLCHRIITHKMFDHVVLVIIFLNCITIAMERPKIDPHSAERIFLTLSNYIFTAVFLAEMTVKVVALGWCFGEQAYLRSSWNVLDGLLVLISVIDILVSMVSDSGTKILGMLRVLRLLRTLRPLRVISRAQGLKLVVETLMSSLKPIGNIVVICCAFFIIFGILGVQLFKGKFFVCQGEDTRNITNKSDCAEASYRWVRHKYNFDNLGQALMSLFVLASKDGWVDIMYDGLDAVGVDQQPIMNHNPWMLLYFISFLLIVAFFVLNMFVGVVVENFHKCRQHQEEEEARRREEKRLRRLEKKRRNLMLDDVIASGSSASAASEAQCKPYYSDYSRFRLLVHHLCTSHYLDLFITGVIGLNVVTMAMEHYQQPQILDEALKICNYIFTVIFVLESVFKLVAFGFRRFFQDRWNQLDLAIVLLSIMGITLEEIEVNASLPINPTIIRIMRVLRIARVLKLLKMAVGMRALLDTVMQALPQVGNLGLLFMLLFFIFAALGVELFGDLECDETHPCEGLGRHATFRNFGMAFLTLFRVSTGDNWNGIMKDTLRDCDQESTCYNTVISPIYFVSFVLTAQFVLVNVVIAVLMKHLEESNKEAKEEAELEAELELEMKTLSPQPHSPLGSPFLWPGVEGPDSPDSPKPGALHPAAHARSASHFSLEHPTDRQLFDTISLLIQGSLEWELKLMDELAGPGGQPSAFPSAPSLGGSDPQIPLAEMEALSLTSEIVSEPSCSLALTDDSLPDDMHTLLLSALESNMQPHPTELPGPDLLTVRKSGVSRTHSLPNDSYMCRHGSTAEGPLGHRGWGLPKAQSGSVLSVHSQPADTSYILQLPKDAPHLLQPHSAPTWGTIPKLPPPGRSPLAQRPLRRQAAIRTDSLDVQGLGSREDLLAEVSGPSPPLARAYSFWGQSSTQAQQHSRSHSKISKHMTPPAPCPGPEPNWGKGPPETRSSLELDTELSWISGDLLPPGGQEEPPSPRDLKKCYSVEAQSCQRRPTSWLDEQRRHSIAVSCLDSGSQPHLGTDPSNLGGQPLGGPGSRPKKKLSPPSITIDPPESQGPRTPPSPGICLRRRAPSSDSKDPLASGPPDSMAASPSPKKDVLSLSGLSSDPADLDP

For `OC(COc1ccc(F)cc1)CN1CCN(Cc2nccn2Cc2ccccc2)CC1` (stereo in doubt) [KKRE10154, (R)-1-(4-((1-benzyl-1H-imidazol-2-yl)methyl)piperazin-1-yl)-3-(4-fluorophenoxy)propan-2-ol], the inhibition in assay [1] was found to be 39.9%. For the same molecule, the inhibition at 101 µM in assay [2] stood at 26.5 ± 3.97%.
In the case of `Cc1ccc(OC[C@@H](O)CN2CCN(Cc3c(F)cccc3Cl)CC2)cc1` [KKRE10138], in assay [2], the inhibition at 10 µM was 13% and the inhibition at 101 µM came out at 13 ± 10.1%. Also, the “block % at 100 μM” value in assay [2] (Table 2) is given as 71.47%. Further, the “block % at 100 μM” value in assay [2] (Table 3 (value ± spread)) turned out to be 71.47 ± 3.30%.
For `O=C(CN1CCN(C[C@@H](O)COc2ccc(C(F)(F)F)cc2)CC1)Nc1ccc(F)cc1` [KKRE10145], in assay [2], the inhibition at 10 µM turned out to be 35.2% and the inhibition at 101 µM came to 35.2 ± 4.89%.
For `O[C@@H](COc1ccc(C(F)(F)F)cc1)CN1CCN(Cc2nccn2Cc2ccccc2)CC1` [KKRE10153, (R)-1-(4-((1-benzyl-1H-imidazol-2-yl)methyl)piperazin-1-yl)-3-(4-(trifluoromethyl)phenoxy)propan-2-ol], the inhibition in assay [1] came out at 46.9%. In assay [2], the inhibition at 10 µM came to 52.1% and the inhibition at 101 µM turned out to be 52.1 ± 7.24%.
In the case of `O[C@@H](COc1ccc(F)cc1)CN1CCN(Cc2nccn2Cc2ccccc2)CC1` [KKRE10155, (R)-1-(4-((1-benzyl-1H-imidazol-2-yl)methyl)piperazin-1-yl)-3-(4-fluorophenoxy)propan-2-ol], the inhibition in assay [1] came out at 33.7%. Besides, the inhibition at 101 µM in assay [2] came to 24 ± 10.6%.
With `O[C@@H](COc1ccc(F)cc1)CN1CCC(N2CCOCC2)CC1` [KKRE10156, (R)-1-(4-fluorophenoxy)-3-(4-morpholinopiperidin-1-yl)propan-2-ol], the inhibition in assay [1] came to 5.31%. In assay [2], the inhibition at 101 µM came out at 16.4 ± 5.65%.
`COc1cccc(C2CCN(C[C@@H](O)COc3ccc(F)cc3)CC2)c1` [KKRE10162, (R)-1-(4-fluorophenoxy)-3-(4-(3-methoxyphenyl)piperidin-1-yl)propan-2-ol]: in assay [2], the inhibition at 10 µM was 52.5% and the inhibition at 101 µM is 52.5 ± 6.76%.
Regarding `O=C(CN1CCN(CC(O)COc2ccc(C(F)(F)F)cc2)CC1)NC1CCCCC1` (centres unmarked) [KKRE10177, N-cyclohexyl-2-(4-(2-hydroxy-3-(4-(trifluoromethyl)phenoxy)propyl)piperazin-1-yl)acetamide], the inhibition in assay [1] is 42%.
The same measure, in the same setting: then `O[C@H](COc1ccc(C(F)(F)F)cc1)CN1CCC(N2CCCC2)CC1` [KKRE10189, (S)-1-(4-(pyrrolidin-1-yl)piperidin-1-yl)-3-(4-(trifluoromethyl)phenoxy)propan-2-ol], with 8.45%; and `O[C@H](COc1ccc(C(F)(F)F)cc1)CN1CCC(F)(F)CC1` [KKRE10190, (S)-1-(4,4-difluoropiperidin-1-yl)-3-(4-(trifluoromethyl)phenoxy)propan-2-ol], with 35%; and `O[C@H](COc1ccc(C(F)(F)F)cc1)CN1CCC(O)(c2ccccc2)CC1` [KKRE10191, (S)-1-(2-hydroxy-3-(4-(trifluoromethyl)phenoxy)propyl)-4-phenylpiperidin-4-ol], with 16.8%.
As to `Cc1ccc(CNC(=O)CN2CCN(C[C@H](O)COc3ccccc3)CC2)cc1` [KKRE10205, (S)-2-(4-(2-hydroxy-3-phenoxypropyl)piperazin-1-yl)-N-(4-methylbenzyl)acetamide], in assay [2], the inhibition at 10 µM is 26.4% and the inhibition at 101 µM was determined as 26.4 ± 12.2%.
With `O=C(CN1CCN(C[C@@H](O)COc2ccccc2)CC1)NCc1ccc(C(F)(F)F)cc1` [KKRE10206, (R)-2-(4-(2-hydroxy-3-phenoxypropyl)piperazin-1-yl)-N-(4-(trifluoromethyl)benzyl)acetamide], the inhibition at 101 µM in assay [2] is 44 ± 7.7%.
On to `O=C(CN1CCN(C[C@H](O)COc2ccccc2)CC1)NCc1ccc(C(F)(F)F)cc1` [KKRE10207, (S)-2-(4-(2-hydroxy-3-phenoxypropyl)piperazin-1-yl)-N-(4-(trifluoromethyl)benzyl)acetamide], for which, in assay [2], the inhibition at 10 µM stood at 53% and the inhibition at 101 µM amounted to 53 ± 5.98%.
With `O=C(CN1CCN(C[C@@H](O)COc2ccc(C(F)(F)F)cc2)CC1)NCc1cc(C2CC2)n(-c2ccccc2)n1` [KKRE10212, (R)-N-((5-cyclopropyl-1-phenyl-1H-pyrazol-3-yl)methyl)-2-(4-(2-hydroxy-3-(4-(trifluoromethyl)phenoxy)propyl)piperazin-1-yl)acetamide], in assay [1], the inhibition is 74.3%.
Regarding `CC(C)Cc1cc(CN2CCN(C[C@@H](O)COc3ccc(C(F)(F)F)cc3)CC2)nn1-c1ccccc1` [KKRE10231], the inhibition at 101 µM in assay [2] was 48.5 ± 4.26%.
`CC(C)Cc1cc(CN2CCN(C[C@H](O)COc3ccc(F)cc3)CC2)nn1-c1ccccc1` [KKRE10232]: in assay [2], the inhibition at 101 µM was 21.7 ± 3.13%.
In the case of `CC(C)Cc1cc(CN2CCN(C[C@@H](O)COc3ccc(F)cc3)CC2)nn1-c1ccccc1` [KKRE10233], the inhibition at 101 µM in assay [2] is 21.6 ± 4.63%.
The same measure, in the same setting: then `CC(C)Cc1cc(CN2CCN(C[C@H](O)COc3ccc(C(F)(F)F)cc3)CC2)nn1-c1ccccc1` [KKRE10234], with 84.2 ± 2.22%.
`CC[C@H]1CN2CC[C@H]1C[C@H]2[C@H](O)c1ccnc2ccc(OC)cc12` [hydroquinine, reference compound]: in assay [2], the inhibition at 10 µM was found to be 19.8% and the inhibition at 101 µM came to 19.8 ± 9.57%. The “block % at 100 μM” value in assay [2] (Table 2) is 49.71%. Besides, the “block % at 100 μM” value in assay [2] (Table 3 (value ± spread)) is given as 49.71 ± 5.83%.
`C=C[C@H]1C[N@@]2CC[C@H]1C[C@@H]2[C@@H](O)c1ccnc2ccc(OC)cc12` [quinidine, reference compound]: the “block % at 100 μM” value in assay [2] (Table 2) worked out at 33.46%; in assay [2] (Table 3 (value ± spread)), 33.46 ± 8.09%.
On to `C=C[C@H]1C[N@@]2CC[C@H]1C[C@H]2[C@H](O)c1ccnc2ccc(OC)cc12` [quinine, reference compound], for which, in assay [2], the inhibition at 10 µM was 17% and the inhibition at 101 µM was 17 ± 6.93%. Also, the “block % at 100 μM” value in assay [2] (Table 2) is 50.00%. Also, the “block % at 100 μM” value in assay [2] (Table 3 (value ± spread)) stood at 50.00 ± 5.72%.

These data come from US9458120B2, “Phenoxypropanol derivative and pharmaceutical composition including the same” (KOREA INSTITUTE OF SCIENCE AND TECHNOLOGY, priority 2011, dated 2016).
